Patent US11351147B2, “Short syntheses of (−)-picrotoxinin and related compounds” (The Scripps Research Institute, priority 2020, dated 2022)
Several values for one entry are separate records, joined by “and”; a condition that tells them apart may be missing. Identical values can stand only once.

Tests used:
[1] = molecular target: Rat GABAA Ion Channel; experiment: Non-selective Rat GABAA Ion Channel [3H] TBOB Binding (Antagonist Radioligand) Assay; conditions: displacement of [3H] TBOB, rat cerebral cortex GABAA receptors
Protocol: A Non-selective Rat GABAA Ion Channel [3H] TBOB Binding (Antagonist Radioligand) Assay (Catalog #3817) was conducted by Eurofins Pharma Discovery Service of Eurofins Cerep, France. The assay is based on these publications: Lewin, A. H. et al. Mol. Pharmacol. 1989, 35, 189, and Schwartz, R. D.; Mindlin, M. C. J. Pharmacol. Exp. Ther. 1987, 244, 963.
Compound binding was calculated as a percentage inhibition of the binding of the radioactive ligand [3H] TBOB (t-[3H]Butylbicycloorthobenzoate) for RAT GABAA Ion Channels.
A 20.0 mM stock solution was prepared in DMSO from pure solid 5-methyl-picrotoxinin (20) to evaluate radioligand displacement of [3H] TBOB from rat cerebral cortex GABAA receptors at final concentrations of 200 μM, 63 μM, 20 μM, 6.3 μM, 2.0 μM, and 0.6 μM.

[2] = Hydrolytic stability study in pH 8 phosphate buffer (NMR monitoring); format: physicochemical; conditions: for Concentration over Time: 100 mM phosphate buffer pH=8 (D2O); for ln of concentration: pH=8 buffer
Protocol: In separate 5 mm NMR tubes, picrotoxinin (1, 1 mg) or 5-methyl picrotoxinin (20, 1 mg) were dissolved in 1 mL of 100 mM phosphate buffer (pH=8, prepared with D20). Spectra were acquired at 0, 6, 12, 24, 36, 48, 60, 72, 84, 96, and 120 h. and monitored for the amount of hydrolysis product (Table 1).

[3] = system: mice; conditions: cited from earlier work

Row | Structure (SMILES) | IC50 [1] | Ki [1] [µM] | Concentration over Time ([2]; 0 h) [µM] | Concentration over Time ([2]; 6 h) [µM] | Concentration over Time ([2]; 12 h) [µM] | Concentration over Time ([2]; 24 h) [µM] | Concentration over Time ([2]; 36 h) [µM] | Concentration over Time ([2]; 48 h) [µM] | Concentration over Time ([2]; 60 h) [µM] | Concentration over Time ([2]; 72 h) [µM] | Concentration over Time ([2]; 84 h) [µM] | Concentration over Time ([2]; 96 h) [µM] | Concentration over Time ([2]; 120 h) [µM] | ln of concentration ([2]; 0 h) | ln of concentration ([2]; 6 h) | ln of concentration ([2]; 12 h) | ln of concentration ([2]; 24 h) | ln of concentration ([2]; 36 h) | ln of concentration ([2]; 48 h) | ln of concentration ([2]; 60 h) | further results
1 | C=C(C)C1C2OC(=O)C1(C)C1(O)C[C@H]3O[C@]34C(=O)OC2C14C (stereo partly drawn) [compound 20, 5-methylpicrotoxinin] | 9.2 µM and 9 µM | 8.2 | 3270 | 3000 | 2771 | 2440 | 2195 | 2031 | 1912 | 1797 | 1686 | 1643 | 1535 | 1.185 | 1.099 | 1.019 | 0.8921 | 0.786 | 0.7086 | 0.6483 | aqueous stability compared with compound (1) ([2]; pH 8): slightly improved; pseudo-first order rate constant compared with compound (1) ([2]; pH 8): more than halving; ln of concentration ([2]; 72 h): 0.586; ln of concentration ([2]; 84 h): 0.5221; ln of concentration ([2]; 96 h): 0.4967; ln of concentration ([2]; 120 h): 0.4287
2 | C=C(C)C1C2OC(=O)C1C1(O)C[C@H]3O[C@]34C(=O)OC2C14C (single isomer, unassigned; (-)) [compound 1, (−)-picrotoxinin] | 0.2 µM | 0.2 | 3420 | 3257 | 2974 | 2124 | 1879 | 1413 | 1281 | 1167 | 914.4 | 775.5 | 529.4 | 1.23 | 1.181 | 1.09 | 0.7534 | 0.6308 | 0.3459 | 0.2476 | ln of concentration ([2]; 72 h): 0.1546; ln of concentration ([2]; 84 h): −0.08945; ln of concentration ([2]; 96 h): −0.2542; ln of concentration ([2]; 120 h): −0.636
3 | C[C@@H]1CC[C@]23OC(=O)[C@@]4(O)O[C@H](C[C@@]124)[C@@]1(O)C(=O)OC[C@@]31C [jiadifenolide] | – | – | – | – | – | – | – | – | – | – | – | – | – | – | – | – | – | – | – | – | convulsive signature [3]: no convulsive signature
